These results are taken from ChEMBL document CHEMBL3861947 (Medchemcomm, 2016).

pIC50: −log10 of the molar value.

The subject of assay [1] is Homo sapiens. As to the kind of experiment: Increase in hemoglobin levels in stage 5D chronic kidney disease patient at 200 to 700 mg administered for 28 days measured on day 29 relative to control. Format: functional.
For assay [2], the system named is Homo sapiens. As to the kind of experiment: Increase in hemoglobin levels in stage 3, 4, 5 chronic kidney disease patient at 200 to 700 mg administered for 28 days measured on day 29 relative to control. In kind it is functional.
The subject of assay [3] is Homo sapiens. Put plainly: Increase in hemoglobin levels in renal anemia patient at 40 to 120 mg administered for 4 weeks. Format: functional.
In assay [4] the test system is Homo sapiens. As to the kind of experiment: Increase in endogenous erythropoietin levels in human administered as single oral dose relative to control. Format: functional.
For another assay, the target named is Egl nine homolog 1 (Homo sapiens, UniProt Q9GZT9). Put plainly: biochemical.
Sequence of Egl nine homolog 1 (Q9GZT9 whole entry): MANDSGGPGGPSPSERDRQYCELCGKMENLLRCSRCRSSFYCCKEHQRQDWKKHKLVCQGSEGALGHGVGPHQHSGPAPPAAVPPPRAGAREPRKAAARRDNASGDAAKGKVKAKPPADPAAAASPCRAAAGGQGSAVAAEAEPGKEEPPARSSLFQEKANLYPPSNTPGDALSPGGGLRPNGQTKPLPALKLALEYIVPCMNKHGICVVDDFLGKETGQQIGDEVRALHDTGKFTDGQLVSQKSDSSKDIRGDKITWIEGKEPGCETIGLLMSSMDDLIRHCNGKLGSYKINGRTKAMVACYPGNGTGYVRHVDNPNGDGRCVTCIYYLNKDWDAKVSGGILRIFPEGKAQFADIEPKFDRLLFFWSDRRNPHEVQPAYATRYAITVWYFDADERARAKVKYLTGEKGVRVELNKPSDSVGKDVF
The next assay deals with Prolyl hydroxylase EGLN2 (Homo sapiens, UniProt Q96KS0). Put plainly: Inhibition of recombinant human HIF-PHD1 expressed in insect Sf9 cells using biotinyl-DLDLEMLAPYIPMDDDFQL as substrate after 60 mins by DELFIA.
Sequence of Prolyl hydroxylase EGLN2 (Q96KS0 whole entry): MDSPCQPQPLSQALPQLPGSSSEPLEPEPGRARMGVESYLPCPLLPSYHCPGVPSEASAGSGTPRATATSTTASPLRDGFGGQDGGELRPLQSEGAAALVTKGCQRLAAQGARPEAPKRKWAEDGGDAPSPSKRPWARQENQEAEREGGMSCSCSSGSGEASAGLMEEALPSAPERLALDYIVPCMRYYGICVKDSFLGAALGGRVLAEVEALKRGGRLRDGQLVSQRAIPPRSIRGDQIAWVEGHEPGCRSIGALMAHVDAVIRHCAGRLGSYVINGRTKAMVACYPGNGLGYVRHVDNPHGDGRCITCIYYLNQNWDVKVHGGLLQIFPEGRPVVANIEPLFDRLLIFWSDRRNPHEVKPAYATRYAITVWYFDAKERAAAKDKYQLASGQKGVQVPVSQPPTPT
Another assay deals with Prolyl hydroxylase EGLN3 (Homo sapiens, UniProt Q9H6Z9). Put plainly: Inhibition of recombinant human HIF-PHD3 expressed in insect Sf9 cells using biotinyl-DLDLEMLAPYIPMDDDFQL as substrate after 60 mins by DELFIA.
Sequence of Prolyl hydroxylase EGLN3 (Q9H6Z9 whole entry): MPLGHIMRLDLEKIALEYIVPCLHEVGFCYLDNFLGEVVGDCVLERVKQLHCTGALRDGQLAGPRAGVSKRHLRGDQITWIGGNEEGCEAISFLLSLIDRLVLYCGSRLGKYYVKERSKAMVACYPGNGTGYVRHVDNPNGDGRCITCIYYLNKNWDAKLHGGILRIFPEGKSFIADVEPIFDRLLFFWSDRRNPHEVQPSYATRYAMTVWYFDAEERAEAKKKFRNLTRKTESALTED
Assay [5] concerns Homo sapiens. As to the kind of experiment: Effect on hemoglobin levels in stage 3 and 4 chronic kidney disease patient at 200 to 700 mg administered for 28 days measured on day 29 (reference value: 9.91 g/dl). In kind it is functional.

What is called pIC50 is the negative decadic logarithm of the IC50, by convention in mol/L.

For the compound `O=C(O)CNC(=O)C1C(=O)N(C2CCCCC2)C(=O)N(C2CCCCC2)C1=O` [DAPRODUSTAT], the Activity was 71 - 89% in the assay on Homo sapiens [1] and 63 - 91% in the assay with Homo sapiens [2].

`Cc1nc(C(=O)NCC(=O)O)c(O)c2ccc(Oc3ccccc3)cc12` [ROXADUSTAT]: the Activity result with Homo sapiens [3] is “>=1 g/dl”. Also, the “fold change (FC)” value in the assay with Homo sapiens [4] is reported as “<=8”.

Regarding `Oc1c(-n2ccnn2)cnn1-c1cc(N2CCOCC2)ncn1` [MOLIDUSTAT SODIUM], the figures for the negative-log IC50 (pIC50) against Egl nine homolog 1, on Prolyl hydroxylase EGLN2 and on Prolyl hydroxylase EGLN3 were 6.55, 6.32 and 6.35, respectively.

For the compound `O=C(O)CNC(=O)c1ncc(-c2cccc(Cl)c2)cc1O`, the Activity with Homo sapiens [5] came out at 10.54 g/dL.
